According to publication PMC3787104, “A Purine Analog Synergizes with Chloroquine (CQ) by Targeting Plasmodium falciparum Hsp90 (PfHsp90)” (PLoS ONE, 2013):

How the values were obtained:
[1] = molecular target: T1, P. falciparum Hsp90 (PfHsp90, PF07_0029) (Plasmodium falciparum, UniProt Q8IC05); assay: SPR (Biacore X), positive control; also full-length ATPase inhibition, […]; format: binding; parameters: gene PF3D7_0708400; full length also tested in ATPase assay
Target sequence in this assay (Q8IC05 entry or part of it): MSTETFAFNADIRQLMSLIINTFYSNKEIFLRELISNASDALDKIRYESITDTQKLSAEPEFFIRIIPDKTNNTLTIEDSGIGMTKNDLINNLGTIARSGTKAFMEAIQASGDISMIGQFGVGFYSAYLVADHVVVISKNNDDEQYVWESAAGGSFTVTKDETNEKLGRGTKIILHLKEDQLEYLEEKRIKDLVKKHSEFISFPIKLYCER

[2] = molecular target: T1, P. falciparum Hsp90 (PfHsp90, PF07_0029); assay: coupled LDH/NADH ATPase assay, positive control; format: biochemical; parameters: gene PF3D7_0708400; full-length PfHsp90
Target sequence in this assay (Q8IC05 1-745): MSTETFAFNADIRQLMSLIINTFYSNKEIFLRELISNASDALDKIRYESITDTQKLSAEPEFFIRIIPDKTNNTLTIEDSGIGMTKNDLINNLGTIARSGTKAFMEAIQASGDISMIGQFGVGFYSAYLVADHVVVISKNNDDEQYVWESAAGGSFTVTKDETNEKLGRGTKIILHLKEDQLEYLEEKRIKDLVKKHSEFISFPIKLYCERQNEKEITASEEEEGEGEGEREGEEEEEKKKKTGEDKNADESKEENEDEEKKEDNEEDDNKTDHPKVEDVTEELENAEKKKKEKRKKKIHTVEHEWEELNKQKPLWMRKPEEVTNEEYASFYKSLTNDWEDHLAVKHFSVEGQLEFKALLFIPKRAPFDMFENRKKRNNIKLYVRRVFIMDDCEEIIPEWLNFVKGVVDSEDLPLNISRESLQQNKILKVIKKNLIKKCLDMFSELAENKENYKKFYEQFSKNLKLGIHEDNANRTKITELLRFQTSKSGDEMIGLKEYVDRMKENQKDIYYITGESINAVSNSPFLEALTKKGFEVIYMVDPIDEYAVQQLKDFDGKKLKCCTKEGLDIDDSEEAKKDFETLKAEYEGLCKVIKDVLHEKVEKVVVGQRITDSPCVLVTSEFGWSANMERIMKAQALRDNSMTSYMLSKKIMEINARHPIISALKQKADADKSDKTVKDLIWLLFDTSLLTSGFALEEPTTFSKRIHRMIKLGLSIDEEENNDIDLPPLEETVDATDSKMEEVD

Structure (SMILES) | Kd [1] [µM] | IC50 [2] [µM]
C=CCNC1=C2C[C@@H](C)C[C@H](OC)[C@H](O)[C@@H](C)/C=C(\C)[C@H](OC(N)=O)[C@@H](OC)/C=C\C=C(/C)C(=O)NC(=CC1=O)C2=O [17-AAG] | 105 ± 0.33 | 
C[C@@H]1C[C@H]2O[C@@H]2/C=C\C=C\C(=O)Cc2c(Cl)c(O)cc(O)c2C(=O)O1 [radicicol] |  | 0.144
